The values below come from US20240343704A1, “HALO-SUBSTITUTED AMINO PYRIDINE COMPOUNDS AS INHIBITORS OF THE HAEMATOPOIETIC PROGENITOR KINASE 1 (HPK1)” (priority 2021, published 2024).

The structures appear in SMILES notation. Like-named read-outs stand apart in the source and are kept apart here. Bounds are passed on as bounds.

Assay [1] addresses Lck (h) (Homo sapiens, UniProt P06239). In words: Lck Human  Kinase Enzymatic Radiometric Assay. It counts as biochemical. The method, boiled down: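 Substrate 33P-incorporation measured by scintillation counting after spotting on P30 filtermat and phosphoric acid washes. Human Lck reacted 40 min at RT in 50 mM Tris pH 7.5 with 10 mM MgAcetate, [gamma-33P]-ATP, 250 uM Cdc2 peptide, 0.1 mM EGTA and 0.1 mM Na3VO4.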

For assay [2], the target named is T1, Recombinant (1-346) HPK1 (h) (Homo sapiens, UniProt Q92918).
T1 construct: Recombinant (1-346) HPK1 (h) is incubated with 8 mM MOPS pH 7.0
T1 sequence (Q92918 1-346): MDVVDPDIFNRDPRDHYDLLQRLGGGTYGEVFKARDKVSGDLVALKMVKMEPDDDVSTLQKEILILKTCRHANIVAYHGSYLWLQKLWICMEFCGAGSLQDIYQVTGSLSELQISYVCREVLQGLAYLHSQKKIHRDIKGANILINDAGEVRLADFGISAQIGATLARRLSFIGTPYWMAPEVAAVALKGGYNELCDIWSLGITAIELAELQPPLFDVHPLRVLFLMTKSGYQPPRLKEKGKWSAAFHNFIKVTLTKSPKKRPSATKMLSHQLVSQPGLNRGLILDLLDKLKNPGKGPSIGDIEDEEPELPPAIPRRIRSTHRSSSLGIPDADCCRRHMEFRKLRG
The experiment in a line: HPK1 Human STE Kinase Enzymatic Radiometric Assay. It counts as biochemical. The protocol:
A stock solution of 10 mM of test compound is prepared in DMSO. The compound plate was prepared by 3-fold and 9-point serial dilutions. […] The reaction is initiated by The addition of the Mg/ATP mix. After incubation for 40 minutes at RT, the reaction is stopped by the addition of phosphoric acid to a concentration of 0.5%.

Chain of Lck (h) (P06239 whole entry): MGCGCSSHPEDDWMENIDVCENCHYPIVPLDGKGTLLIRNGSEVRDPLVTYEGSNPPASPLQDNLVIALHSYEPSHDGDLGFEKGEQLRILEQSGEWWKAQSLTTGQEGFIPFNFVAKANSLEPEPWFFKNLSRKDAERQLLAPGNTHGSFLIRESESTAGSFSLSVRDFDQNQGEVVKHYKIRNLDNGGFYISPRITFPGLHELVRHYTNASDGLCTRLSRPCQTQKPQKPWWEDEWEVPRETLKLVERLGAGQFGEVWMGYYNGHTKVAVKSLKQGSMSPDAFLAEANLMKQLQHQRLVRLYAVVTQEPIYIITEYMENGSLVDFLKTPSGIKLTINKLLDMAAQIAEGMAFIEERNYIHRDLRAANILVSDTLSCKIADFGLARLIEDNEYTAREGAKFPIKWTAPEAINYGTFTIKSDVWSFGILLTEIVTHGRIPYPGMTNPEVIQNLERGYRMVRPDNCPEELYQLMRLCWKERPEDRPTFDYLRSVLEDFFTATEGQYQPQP

On to `Nc1nc(F)c(-c2ccc(C3CCNCC3)cc2)cc1-c1ccc2c(c1)CCNC2=O` [I-30, 6-(2-amino-6-fluoro-5-(4-(piperidin-4-yl)phenyl)pyridin-3-yl)-3,4-dihydroisoquinolin-1(2H)-one], for which the IC50 in assay [1] (read-out: Lck IC50 nM Range*) was greater than 1000 nM; in assay [2] (read-out: HPK1 IC50 nM Range*) it was 0.1 to 10 nM.
The corresponding values for `Nc1nc(F)c(-c2ccc(C3=CCN(CC(F)F)CC3)cc2)cc1-c1ccc2c(c1)CCNC2=O` [I-73, 6-(2-amino-5-(4-(1-(2,2-difluoroethyl)-1,2,3,6-tetrahydropyridin-4-yl)phenyl)-6-fluoropyridin-3-yl)-3,4-dihydroisoquinolin-1(2H)-one] are greater than 1000 nM and 0.1 to 10 nM.
For `CC(C)C(=O)N1C[C@H]2C[C@@]2(c2ccc(-c3cc(-c4ccc5c(c4)CCNC5=O)c(N)nc3F)cc2)C1` [I-143, 6-(2-amino-6-fluoro-5-(4-((1R,5S)-3-isobutyryl-3-azabicyclo[3.1.0]hexan-1-yl)phenyl)pyridin-3-yl)-3,4-dihydroisoquinolin-1(2H)-one], the IC50 in assay [1] (read-out: Lck IC50 nM Range*) is greater than 1000 nM; in assay [2] (read-out: HPK1 IC50 nM Range*) it was 0.1 to 10 nM.
For `CCN1CC=C(c2ccc(-c3cc(-c4ccc5c(c4)CCNC5=O)c(N)nc3F)cc2)CC1` [I-76, 6-(2-amino-5-(4-(1-ethyl-1,2,3,6-tetrahydropyridin-4-yl)phenyl)-6-fluoropyridin-3-yl)-3,4-dihydroisoquinolin-1(2H)-one], in that order: greater than 1000 nM and 0.1 to 10 nM.
For `Nc1nc(F)c(-c2ccc(C3CCOCC3)c([C@@H]3CCCN3)c2)cc1-c1cc(F)c2c(c1)CCNC2=O` [I-369, (S)-6-(2-amino-6-fluoro-5-(3-(pyrrolidin-2-yl)-4-(tetrahydro-2H-pyran-4-yl)phenyl)pyridin-3-yl)-8-fluoro-3,4-dihydroisoquinolin-1(2H)-one], in that order: greater than 1000 nM and 0.1 to 10 nM.
The corresponding values for `CN1CCN(Cc2ccc(-c3cc(-c4ccc5c(c4)CCNC5=O)c(N)nc3F)cc2)CC1` [I-258, 6-(2-amino-6-fluoro-5-(4-((4-methylpiperazin-1-yl)methyl)phenyl)pyridin-3-yl)-3,4-dihydroisoquinolin-1(2H)-one] are greater than 1000 nM and 11 to 100 nM.
Take `CN1CCN(S(=O)(=O)c2ccc(-c3cc(-c4ccc5c(c4)CCNC5=O)c(N)nc3F)cc2)CC1` [I-207, 6-(2-amino-6-fluoro-5-(4-((4-methylpiperazin-1-yl)sulfonyl)phenyl)pyridin-3-yl)-3,4-dihydroisoquinolin-1(2H)-one]: the IC50 in assay [1] (read-out: Lck IC50 nM Range*) is greater than 1000 nM; in assay [2] (read-out: HPK1 IC50 nM Range*) it was 0.1 to 10 nM.
For `CCN1CCCC(c2ccc(-c3cc(-c4ccc5c(c4)CCNC5=O)c(N)nc3F)cc2)C1` (stereo not shown) [I-52, 6-(2-amino-5-(4-(1-ethylpiperidin-3-yl)phenyl)-6-fluoropyridin-3-yl)-3,4-dihydroisoquinolin-1(2H)-one], in that order: greater than 1000 nM and 0.1 to 10 nM.
In the case of `CC(C)N1CCc2cc(-c3cc(-c4ccc5c(c4)CCNC5=O)c(N)nc3F)ccc2C1` [I-328, 6-(2-amino-6-fluoro-5-(2-isopropyl-1,2,3,4-tetrahydroisoquinolin-6-yl)pyridin-3-yl)-3,4-dihydroisoquinolin-1(2H)-one], the IC50 in assay [1] (read-out: Lck IC50 nM Range*) is greater than 1000 nM; in assay [2] (read-out: HPK1 IC50 nM Range*), 11 to 100 nM.
For `Nc1nc(F)c(-c2ccc(C3CCN(CC4CC4)CC3)cc2)cc1-c1cc2c(cc1F)C(=O)NCC2` [I-242, 6-(2-amino-5-(4-(1-(cyclopropylmethyl)piperidin-4-yl)phenyl)-6-fluoropyridin-3-yl)-7-fluoro-3,4-dihydroisoquinolin-1(2H)-one], in that order: greater than 1000 nM and 0.1 to 10 nM.
For `CN(C)CC1Cc2cc(-c3cc(-c4ccc(N5CCOCC5)cc4)c(F)nc3N)ccc2C(=O)N1` (stereo not shown) [I-311, 6-(2-amino-6-fluoro-5-(4-morpholinophenyl)pyridin-3-yl)-3-((dimethylamino)methyl)-3,4-dihydroisoquinolin-1(2H)-one], in that order: greater than 1000 nM and 11 to 100 nM.
As for `Nc1nc(F)c(-c2ccc3c(c2)CCNC3=O)cc1-c1ccc2c(c1)CCNC2=O` [I-333, 6,6′-(2-amino-6-fluoropyridine-3,5-diyl)bis(3,4-dihydroisoquinolin-1(2H)-one)], the figures for the concentration for half-maximal inhibition (IC50) in assay [1] (read-out: Lck IC50 nM Range*) and in assay [2] (read-out: HPK1 IC50 nM Range*) were greater than 1000 nM and 0.1 to 10 nM, respectively.
Consider `Nc1nc(F)c(-c2ccnc(OCC3CC3)c2)cc1-c1cc2c(cc1F)C(=O)NCC2` [I-314, 6-(6-amino-2′-(cyclopropylmethoxy)-2-fluoro-[3,4′-bipyridin]-5-yl)-7-fluoro-3,4-dihydroisoquinolin-1(2H)-one], for which the IC50 in assay [1] (read-out: Lck IC50 nM Range*) was greater than 1000 nM; in assay [2] (read-out: HPK1 IC50 nM Range*), 101 to 1000 nM.
The corresponding values for `Nc1nc(F)c(-c2ccc(OC3CCN(C(=O)C4CC4)CC3)cc2)cc1-c1ccc2c(c1)CCNC2=O` [I-203, 6-(2-amino-5-(4-((1-(cyclopropanecarbonyl)piperidin-4-yl)oxy)phenyl)-6-fluoropyridin-3-yl)-3,4-dihydroisoquinolin-1(2H)-one] are greater than 1000 nM and 0.1 to 10 nM.
On to `CNCC1Cc2cc(-c3cc(-c4ccc(N5CCOCC5)cc4)c(F)nc3N)ccc2C(=O)N1` (stereo not shown) [I-285, 6-(2-amino-6-fluoro-5-(4-morpholinophenyl)pyridin-3-yl)-3-((methylamino)methyl)-3,4-dihydroisoquinolin-1(2H)-one], for which the IC50 in assay [1] (read-out: Lck IC50 nM Range*) is greater than 1000 nM; in assay [2] (read-out: HPK1 IC50 nM Range*), 11 to 100 nM.
The corresponding values for `CN1CCN(c2ccc(-c3cc(-c4ccc5c(c4)CCNC5=O)c(N)nc3F)cc2)C=N1` [I-31, 6-(2-amino-6-fluoro-5-(4-(1-methyl-5,6-dihydro-1,2,4-triazin-4(1H)-yl)phenyl)pyridin-3-yl)-3,4-dihydroisoquinolin-1(2H)-one] are greater than 1000 nM and 0.1 to 10 nM.
As to `CC(=O)N1CC(Oc2ccc(-c3cc(-c4cc5c(cc4F)C(=O)NCC5)c(N)nc3F)cc2)C1` [I-341, 6-(5-(4-((1-acetylazetidin-3-yl)oxy)phenyl)-2-amino-6-fluoropyridin-3-yl)-7-fluoro-3,4-dihydroisoquinolin-1(2H)-one], the IC50 in assay [1] (read-out: Lck IC50 nM Range*) was greater than 1000 nM; in assay [2] (read-out: HPK1 IC50 nM Range*), 11 to 100 nM.
The corresponding values for `CC(=O)N1CC(Oc2ccc(-c3cc(-c4ccc5c(c4)CCNC5=O)c(N)nc3F)cc2)C1` [I-326, 6-(5-(4-((1-acetylazetidin-3-yl)oxy)phenyl)-2-amino-6-fluoropyridin-3-yl)-3,4-dihydroisoquinolin-1(2H)-one] are greater than 1000 nM and 0.1 to 10 nM.
On to `COCCN1CCC(Oc2ccc(-c3cc(-c4ccc5c(c4)CCNC5=O)c(N)nc3F)cc2C#N)CC1` [I-217, 5-(6-amino-2-fluoro-5-(1-oxo-1,2,3,4-tetrahydroisoquinolin-6-yl)pyridin-3-yl)-2-((1-(2-methoxyethyl)piperidin-4-yl)oxy)benzonitrile], for which the IC50 was greater than 1000 nM in assay [1] (read-out: Lck IC50 nM Range*) and 0.1 to 10 nM in assay [2] (read-out: HPK1 IC50 nM Range*).
As to `Nc1nc(F)c(-c2ccc3c(c2)COC2(CCNCC2)O3)cc1-c1ccc2c(c1)CCNC2=O` [I-181, 6-(2-amino-6-fluoro-5-(4H-spiro[benzo[d][1,3]dioxine-2,4′-piperidin]-6-yl)pyridin-3-yl)-3,4-dihydroisoquinolin-1(2H)-one], the half-maximal inhibitory concentration (IC50) in assay [1] was greater than 1000 nM; in assay [2] it was 0.1 to 10 nM.

What is called IC50 is the concentration that inhibits the measured activity by half.
